Drawing on patent publication US20180318311A1, “TRICYCLIC 2-QUINOLINONES AS ANTIBACTERIALS” (priority 2017, published 2018), this text covers MIC for twelve compounds.

In brackets after ≈: the same amount, converted by molar mass. Structures can show the parent of a compound that is named as a salt. Where two headings read alike, the source gives them in different places.

Common to all, as to type: cell-based
Assay [1] has as its system S. aureus ATCC 49951 (NB01006). As to the kind of experiment: MIC by broth microdilution, S. aureus NB01006. To be noted: Staphylococcus aureus, ATCC49951, CAMHB, 35° C., 20 hours, read-out: Antibacterial activity (MIC) NB01006. A digest of the protocol: (§1)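 MIC in μg/mL taken as the lowest concentration with no visible growth, checked by 600 nm reading after 20 h at 35°C, ambient air. Strains tested per CLSI microdilution in cation-adjusted Mueller-Hinton broth at about 5×10^5 CFU/mL, compounds as two-fold series, 1% DMSO final.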
A general note: Dilution methods test growth across graded concentrations, often in twofold steps.

Assay [2] relates to S. aureus NB01080 fluoroquinolone-resistant clinical isolate. As to the kind of experiment: MIC by broth microdilution, S. aureus NB01080. The conditions noted are these: Staphylococcus aureus, CAMHB, 35° C., 20 hours, read-out: Antibacterial activity (MIC) NB01080. Put shortly: as §1
In assay [3] the test system is S. aureus NB01006-AVR005, gyrA (S84L), grlA (580F) and grlB (E471K). As to the kind of experiment: microbe, parasite or virus in culture. The conditions noted are these: Staphylococcus aureus, 20 h, read-out: Antibacterial activity (MIC) NB01006-AVR005. Put shortly:
as §1

Assay [4] concerns S. pneumoniae ATCC 25922 (NB07001). The assay can be described thus: MIC by broth microdilution, S. pneumoniae NB07001. The conditions noted are these: Streptococcus pneumoniae, read-out: Antibacterial activity (MIC) NB07001. A digest of the protocol:
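CLSI broth microdilution in CAMHB, inoculum ~5×10^5 CFU/mL, two-fold compound dilutions at 1% final DMSO. Plates incubated 20 h at 35°C in ambient air; MIC (μg/mL) is the lowest concentration preventing visible growth, confirmed by OD600.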

Assay [5] concerns E. coli ATCC 25922 (NB27001). The assay can be described thus: MIC by broth microdilution, E. coli NB27001. To be noted: Escherichia coli, ATCC25922, CAMHB, 35° C., 20 hours, read-out: Antibacterial activity (MIC) NB27001. Put shortly:
as §1

For assay [6], the system named is E. faecalis ATCC 29212 (NB04001). As to the kind of experiment: MIC by broth microdilution, E. faecalis NB04001. The conditions noted are these: Enterococcus faecalis, ATCC29212, CAMHB, 35° C., 20 hours, read-out: Antibacterial activity (MIC) NB04001. A digest of the protocol: as §1
Assay [7] concerns P. aeruginosa NB52019, wild-type PAO1 strain. As to the kind of experiment: MIC by broth microdilution, P. aeruginosa NB52019. To be noted: Pseudomonas aeruginosa, CAMHB, 35° C., 20 hours, read-out: Antibacterial activity (MIC) NB52019. Put shortly:
as §1

On to `C[C@H](N)[C@@H]1CCN(c2cc(F)c3cc(C(=O)O)c(=O)n4c3c2OC[C@@H]4C)C1` [Example 12.2, (S)-10-((R)-3-((S)-1-aminoethyl)pyrrolidin-1-yl)-8-fluoro-3-methyl-5-oxo-2,3-dihydro-5H-[1,4]oxazino[2,3,4-ij]quinoline-6-carboxylic acid], for which the MIC in assay [1] is below 1 µg/mL; in assay [2], 1 to 32 µg/mL (≈ 2.66 to 85.2 µM); in assay [3] it was 1 to 32 µg/mL (≈ 2.66 to 85.2 µM); in assay [4] (ATCC25922, 20 h), below 1 µg/mL; in assay [5] it was 1 to 32 µg/mL (≈ 2.66 to 85.2 µM); in assay [6], below 1 µg/mL. Also, in assay [7], the MIC was 1 to 32 µg/mL (≈ 2.66 to 85.2 µM).
On to `C[C@H](N)[C@@H]1CCN(c2ccc3cc(C(=O)O)c(=O)n4c3c2OC[C@@H]4C)C1` [Example 12.4, (S)-10-((R)-3-((S)-1-aminoethyl)pyrrolidin-1-yl)-3-methyl-5-oxo-2,3-dihydro-5H-[1,4]oxazino[2,3,4-ij]quinoline-6-carboxylic acid], for which the MIC in assay [1] is below 1 µg/mL; in assay [2], 1 to 32 µg/mL (≈ 2.8 to 89.5 µM); in assay [3], 1 to 32 µg/mL (≈ 2.8 to 89.5 µM); in assay [4] (ATCC25922, 20 h) it was below 1 µg/mL; in assay [5], 1 to 32 µg/mL (≈ 2.8 to 89.5 µM); in assay [6], below 1 µg/mL. In addition, the MIC in assay [7] was in the range of 1 to 32 µg/mL (≈ 2.8 to 89.5 µM).
With `C[C@H]1COc2c(N3CCC(F)(CN)C3)ccc3cc(C(=O)O)c(=O)n1c23` (stereo partly drawn) [Example 12.5, (3S)-10-(3-(aminomethyl)-3-fluoropyrrolidin-1-yl)-3-methyl-5-oxo-2,3-dihydro-5H-[1,4]oxazino[2,3,4-ij]quinoline-6-carboxylic acid], the MIC in assay [1] was 1 to 32 µg/mL (≈ 2.77 to 88.6 µM); in assay [2], 1 to 32 µg/mL (≈ 2.77 to 88.6 µM); in assay [3], above 32 µg/mL; in assay [4] (ATCC25922, 20 h), 1 to 32 µg/mL (≈ 2.77 to 88.6 µM); in assay [5] it was 1 to 32 µg/mL (≈ 2.77 to 88.6 µM); in assay [6], 1 to 32 µg/mL (≈ 2.77 to 88.6 µM). Also, the MIC in assay [7] was above 32 µg/mL.
For `C[C@H]1COc2c(N3CC4CC4(N)C3)ccc3cc(C(=O)O)c(=O)n1c23` (stereo partly drawn) [Example 12.6, (3S)-10-(1-amino-3-azabicyclo[3.1.0]hexan-3-yl)-3-methyl-5-oxo-2,3-dihydro-5H-[1,4]oxazino[2,3,4-ij]quinoline-6-carboxylic acid], the MIC in assay [1] is 1 to 32 µg/mL (≈ 2.93 to 93.7 µM); in assay [2], 1 to 32 µg/mL (≈ 2.93 to 93.7 µM); in assay [3], above 32 µg/mL; in assay [4] (ATCC25922, 20 h), 1 to 32 µg/mL (≈ 2.93 to 93.7 µM); in assay [5], 1 to 32 µg/mL (≈ 2.93 to 93.7 µM); in assay [6], 1 to 32 µg/mL (≈ 2.93 to 93.7 µM). For the same compound, the MIC in assay [7] was above 32 µg/mL.
As to `C[C@H]1COc2c(N3CC[C@@H](C4(N)CC4)C3)c(F)c(F)c3cc(C(=O)O)c(=O)n1c23` [Example 13.1, (S)-10-((R)-3-(1-aminocyclopropyl)pyrrolidin-1-yl)-8,9-difluoro-3-methyl-5-oxo-2,3-dihydro-5H-[1,4]oxazino[2,3,4-ij]quinoline-6-carboxylic acid hydrochloride salt], the MIC in assay [1] is below 1 µg/mL; in assay [2], below 1 µg/mL; in assay [3], below 1 µg/mL; in assay [4] (ATCC25922, 20 h), below 1 µg/mL; in assay [5] it was below 1 µg/mL; in assay [6], below 1 µg/mL. Also, the MIC in assay [7] lay in the range of 1 to 32 µg/mL.
Consider `C[C@H](N)[C@@H]1CCN(c2c(F)c(F)c3cc(C(=O)O)c(=O)n4c3c2OC[C@@H]4C)C1` [Example 13.2, (S)-10-((R)-3-((S)-1-aminoethyl)pyrrolidin-1-yl)-8,9-difluoro-3-methyl-5-oxo-2,3-dihydro-5H-[1,4]oxazino[2,3,4-ij]quinoline-6-carboxylic acid], for which the MIC was below 1 µg/mL in assay [1]; below 1 µg/mL in assay [2]; below 1 µg/mL in assay [3]; below 1 µg/mL in assay [4] (ATCC25922, 20 h); below 1 µg/mL in assay [5]; below 1 µg/mL in assay [6]. The MIC in assay [7] is 1 to 32 µg/mL (≈ 2.54 to 81.3 µM).
Consider `C[C@H]1COc2c(N3CCN(C)CC3)c(F)c(F)c3cc(C(=O)O)c(=O)n1c23` [Example 13.3], for which the MIC in assay [1] is 1 to 32 µg/mL (≈ 2.64 to 84.4 µM); in assay [2], above 32 µg/mL; in assay [3] it was above 32 µg/mL; in assay [4] (ATCC25922, S. pneumoniae, CAMHB supplemented with 5% lysed horse blood, 35° C., 20 hours) it was above 32 µg/mL; in assay [5] it was 1 to 32 µg/mL (≈ 2.64 to 84.4 µM); in assay [6], above 32 µg/mL. Also, the MIC in assay [7] was above 32 µg/mL.
For the compound `C[C@H]1COc2c(N3CCC(F)(CN)C3)c(F)c(F)c3cc(C(=O)O)c(=O)n1c23` (stereo partly drawn) [Example 13.5, (3S)-10-(3-(aminomethyl)-3-fluoropyrrolidin-1-yl)-8,9-difluoro-3-methyl-5-oxo-2,3-dihydro-5H-[1,4]oxazino[2,3,4-ij]quinoline-6-carboxylic acid], the MIC in assay [1] was below 1 µg/mL; in assay [2], 1 to 32 µg/mL (≈ 2.52 to 80.5 µM); in assay [3], 1 to 32 µg/mL (≈ 2.52 to 80.5 µM); in assay [4] (ATCC25922, 20 h), below 1 µg/mL; in assay [5], 1 to 32 µg/mL (≈ 2.52 to 80.5 µM); in assay [6], below 1 µg/mL. Moreover, in assay [7], the MIC was above 32 µg/mL.
Consider `C[C@H]1COc2c(N3CC[C@@H](C4(N)CCC4)C3)c(F)c(F)c3cc(C(=O)O)c(=O)n1c23` [Example 13.8, (S)-10-((R)-3-(1-aminocyclobutyl)pyrrolidin-1-yl)-8,9-difluoro-3-methyl-5-oxo-2,3-dihydro-5H-[1,4]oxazino[2,3,4-ij]quinoline-6-carboxylic acid], for which the MIC in assay [1] is below 1 µg/mL; in assay [2], below 1 µg/mL; in assay [3], below 1 µg/mL; in assay [4] (ATCC25922, 20 h) it was below 1 µg/mL; in assay [5], 1 to 32 µg/mL (≈ 2.38 to 76.3 µM); in assay [6], below 1 µg/mL. Further, in assay [7], the MIC is 1 to 32 µg/mL (≈ 2.38 to 76.3 µM).
For the compound `C[C@H]1COc2c(N3CC[C@@H](C4(N)CC4)C3)c(F)c(N)c3cc(C(=O)O)c(=O)n1c23` [Example 14, (S)-8-amino-10-((R)-3-(1-aminocyclopropyl)pyrrolidin-1-yl)-9-fluoro-3-methyl-5-oxo-2,3-dihydro-5H-[1,4]oxazino[2,3,4-ij]quinoline-6-carboxylic acid hydrochloride salt], the MIC in assay [1] is below 1 µg/mL; in assay [2], 1 to 32 µg/mL; in assay [3], 1 to 32 µg/mL; in assay [4] (ATCC25922, 20 h), below 1 µg/mL; in assay [5] it was 1 to 32 µg/mL; in assay [6], below 1 µg/mL. In addition, in assay [7], the MIC was above 32 µg/mL.
As for `COc1c(N2CC[C@@H](C3(N)CC3)C2)c2c3c(cc(C(=O)O)c(=O)n3[C@@H](C)CO2)c1N` [Example 15, (S)-8-amino-10-((R)-3-(1-aminocyclopropyl)pyrrolidin-1-yl)-9-methoxy-3-methyl-5-oxo-2,3-dihydro-5H-[1,4]oxazino[2,3,4-ij]quinoline-6-carboxylic acid formate salt], the MIC was above 32 µg/mL in assay [1]; above 32 µg/mL in assay [2]; above 32 µg/mL in assay [3]; 1 to 32 µg/mL in assay [4] (ATCC25922, 20 h); above 32 µg/mL in assay [5]; above 32 µg/mL in assay [6]. Besides, the MIC in assay [7] is above 32 µg/mL.
As to `COc1cc2cc(C(=O)O)c(=O)n3c2c(c1N1CC[C@@H](C2(N)CC2)C1)OC[C@@H]3C` [Example 16, (S)-10-((R)-3-(1-aminocyclopropyl)pyrrolidin-1-yl)-9-methoxy-3-methyl-5-oxo-2,3-dihydro-5H-[1,4]oxazino[2,3,4-ij]liquinoline-6-carboxylic acid formate salt], the MIC in assay [1] is above 32 µg/mL; in assay [2], above 32 µg/mL; in assay [3], above 32 µg/mL; in assay [4] (ATCC25922, 20 h), 1 to 32 µg/mL; in assay [5], above 32 µg/mL; in assay [6], above 32 µg/mL. In addition, the MIC in assay [7] was above 32 µg/mL.
